{"source": "patent US11931325B2", "about": "“Hair-growth promoting composition and usage thereof” (Eaderm Co., Ltd., priority 2015, dated 2024)", "key": {"ob/ob mouse": {"tested_on": "ob/ob mouse", "test": "Hair growth experiment using an iNOS inhibitor in shaved/depilated ob/ob mice", "format": "in vivo", "conditions": "for time until deposition of melanin pigments in the skin was observed: hair removed at 8 weeks of age, intraperitoneal in saline (10, 20 and 30 mg/kg for 1400W, L-NIL, BYK191023), time from start of administration; for area of hair growth compared to 1400W: 4 weeks", "protocol": "For this experiment, the ob/ob mouse purchased from Sankyo Labo Service Corporation was used. The whole back of the mouse was shaved using an electric shaver under anesthesia (mixed anesthesia of ketamine hydrochloride and xylazine hydrochloride) at 8 weeks of age, and the hair was removed with a commercially available depilatory cream (Epilat hair removal cream from Kracie Holdings, Ltd.). Administration or application of each iNOS inhibitor was carried out on the day the experiment began. The usage and dosage of the iNOS inhibitors used are as described below. Selective iNOS inhibitors, 1400W, L-NIL and BYK191023, were purchased from Tocris Bioscience and dissolved in saline solution, and each of them was administered intraperitoneally at 10 mg/kg, 20 mg/kg and 30 mg/kg. For the control group, saline solution was administered intraperitoneally. Consecutive administration for five days from Monday to Friday was continued for one month. A similarly selective iNOS inhibitor, aminoguanidine, was purchased from Tokyo Chemical Industry Co., Ltd. and dissolved in saline solution to 10% (w/v), and 100 μl was applied to the epilation area. For the control group, saline solution was used. Consecutive application for five days from Monday to Friday was continued for one month. The back was photographed once a week and observation was continued until 12 weeks of age. Every seven days from the start of the administration, the state of hair growth in the shaved area was rated using the hair growth score standard below.\n(Hair Growth Score Standard)\n1=hair growth in less than 10% of the shaved area\n2=hair growth in equal to or more than 10% and less than 20% of the shaved area\n3=hair growth in equal to or more than 20% and less than 30% of the shaved area\n4=hair growth in equal to or more than 30% and less than 40% of the shaved area\n5=hair growth in equal to or more than 40% and less than 50% of the shaved area\n6=hair growth in equal to or more than 50% and less than 60% of the shaved area\n7=hair growth in equal to or more than 60% and less than 70% of the shaved area\n8=hair growth in equal to or more than 70% and less than 80% of the shaved area\n9=hair growth in equal to or more than 80% and less than 90% of the shaved area\n10=hair growth in equal to or more than 90% of the shaved area"}, "[1]": {"tested_on": "C3H mouse and C57BL/6 mouse", "test": "Hair growth experiment using wild-type mice (application of aminoguanidine)", "format": "in vivo", "conditions": "C3H and C57BL/6 mice, 10% (w/v) in saline, 100 μl applied to the epilation area, five days a week for three weeks", "protocol": "In this experiment, the same method as Example 2 was used, except that the C3H mouse and C57BL/6 mouse were used. The whole back of the mouse was shaved using an electric shaver under anesthesia (mixed anesthesia of ketamine hydrochloride and xylazine hydrochloride) at 8 weeks of age, and the hair was removed with a commercially available depilatory cream (Epilat hair removal cream from Kracie Holdings, Ltd.). Application of aminoguanidine was carried out on the day the experiment began. The usage and dosage of the aminoguanidine used are as described below. Aminoguanidine was purchased from Tokyo Chemical Industry Co., Ltd. and dissolved to 10% (w/v) in saline solution, and 100 μl was applied to the epilation area. For the control group, saline solution was used. Consecutive application for five days from Monday to Friday was continued for three weeks, and the back was photographed daily."}, "[2]": {"conditions": "10% (w/v) in saline, 100 μl applied to the epilation area, time from start of application"}}, "data": [{"compound": "CC(=N)NCc1cccc(CN)c1", "note": "[1400W]", "values": [{"measurement": "time until widespread hair growth was confirmed", "setting": "ob/ob mouse; intraperitoneal administration, five days a week for one month", "value": "four"}]}, {"compound": "COc1ccnc(CCc2nc3ncccc3[nH]2)c1", "note": "[BYK191023]", "values": [{"measurement": "time until deposition of melanin pigments in the skin was observed", "setting": "ob/ob mouse; five days a week for one month", "value": "three"}, {"measurement": "area of hair growth compared to 1400W", "setting": "ob/ob mouse; intraperitoneal administration", "value": "less"}]}, {"compound": "CC(=N)NCCCC[C@H](N)C(=O)O", "note": "[L-NIL]", "values": [{"measurement": "time until deposition of melanin pigments in the skin was observed", "setting": "ob/ob mouse; five days a week for one month", "value": "three"}, {"measurement": "area of hair growth compared to 1400W", "setting": "ob/ob mouse; intraperitoneal administration", "value": "less"}]}, {"compound": "N=C(N)NN", "note": "[aminoguanidine]", "values": [{"measurement": "time until hair growth was confirmed", "setting": "ob/ob mouse; [2]", "value": "two"}, {"measurement": "time until hair returned to almost the same as the original condition", "setting": "ob/ob mouse; [2]", "value": "four"}, {"measurement": "time until widespread hair growth was confirmed", "setting": "ob/ob mouse; [2]", "value": "three"}, {"measurement": "shortening of the telogen phase compared to the control group", "setting": "[1]", "value": "two to three"}]}]}
